Laboratory results: patent US8404679B2, “Pyrrolidine derivatives as NK2 receptor antagonists” (Hoffmann-La Roche Inc., priority 2008, dated 2013)

What follows are compounds tested against T1, human NK2 receptor (Homo sapiens, UniProt P21452) (assay: [3H]SR48968 competition binding assay). Conditions: [3H]SR48968 displacement, membranes of CHO cells stably expressing recombinant human NK2 receptor; Ki from IC50 by Cheng-Prussoff.
T1 construct: purchased Perkin Elmer biosignal Inc. 6110510
T1 sequence (P21452 1-398): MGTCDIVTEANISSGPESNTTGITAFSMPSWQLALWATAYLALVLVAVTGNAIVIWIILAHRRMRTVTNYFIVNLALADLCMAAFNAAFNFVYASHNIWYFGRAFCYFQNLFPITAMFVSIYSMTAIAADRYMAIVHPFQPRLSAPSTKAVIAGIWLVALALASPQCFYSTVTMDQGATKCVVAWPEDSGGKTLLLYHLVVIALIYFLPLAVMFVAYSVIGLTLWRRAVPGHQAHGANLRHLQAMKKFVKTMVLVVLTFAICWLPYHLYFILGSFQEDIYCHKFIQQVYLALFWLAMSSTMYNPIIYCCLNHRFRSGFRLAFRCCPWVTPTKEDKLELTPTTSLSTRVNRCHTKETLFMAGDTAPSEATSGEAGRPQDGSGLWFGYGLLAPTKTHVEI
In short: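 Membranes from CHO cells stably expressing recombinant human NK2 were incubated 75 min at RT with [3H]SR48968 at its KD and 10 compound concentrations (0.0003–10 μM) in Tris-HCl pH 7.4, MnCl2, chymostatin, BSA. Filter-bound radioactivity was counted; Hill-fitted IC50 converted to Ki via Cheng-Prusoff.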

Compound | Ki [nM]
COc1ccc(C(=O)N(C)[C@H]2CN(C(=O)C3CCN(C(=O)C4(C)CC4)CC3)C[C@@H]2c2ccc(Cl)c(Cl)c2)cc1C(F)(F)F (racemic) [Example 96, N-{(3RS,4SR)-4-(3,4-Dichloro-phenyl)-1-[1-(1-methyl-cyclopropanecarbonyl)-piperidine-4-carbonyl]-pyrrolidin-3-yl}-4-methoxy-N-methyl-3-trifluoromethyl-benzamide] | 0.8
CN(C(=O)c1ccc(Cl)c(C(F)(F)F)c1)[C@H]1CN(C(=O)C2CCN(C(=O)C3(C)CC3)CC2)C[C@@H]1c1ccc(Cl)c(Cl)c1 (racemic) [Example 97, 4-Chloro-N-{(3RS,4SR)-4-(3,4-dichloro-phenyl)-1-[1-(1-methyl-cyclopropanecarbonyl)-piperidine-4-carbonyl]-pyrrolidin-3-yl}-N-methyl-3-trifluoromethyl-benzamide] | 0.7
CN(C(=O)Cc1ccc(F)cc1)[C@H]1CN(C(=O)C2CCN(C(=O)C3(C)CC3)CC2)C[C@@H]1c1ccc(Cl)c(Cl)c1 (racemic) [Example 101, N-{(3RS,4SR)-4-(3,4-Dichloro-phenyl)-1-[1-(1-methyl-cyclopropanecarbonyl)-piperidine-4-carbonyl]-pyrrolidin-3-yl}-2-(4-fluoro-phenyl)-N-methyl-acetamide] | 16.2
CN(C(=O)CCc1ccc(F)cc1)[C@H]1CN(C(=O)C2CCN(C(=O)C3(C)CC3)CC2)C[C@@H]1c1ccc(Cl)c(Cl)c1 (racemic) [Example 102, N-{(3RS,4SR)-4-(3,4-Dichloro-phenyl)-1-[1-(1-methyl-cyclopropanecarbonyl)-piperidine-4-carbonyl]-pyrrolidin-3-yl}-3-(4-fluoro-phenyl)-N-methyl-propionamide] | 2.4
COc1ccc(C(=O)N(C)[C@H]2CN(C(=O)C3CCNCC3)C[C@@H]2c2ccc(Cl)cc2)cc1C(F)(F)F (racemic) [Example 103, N-[(3RS,4SR)-4-(4-Chloro-phenyl)-1-(piperidine-4-carbonyl)-pyrrolidin-3-yl]-4-methoxy-N-methyl-3-trifluoromethyl-benzamide] | 7
COc1ccc(C(=O)N(C)[C@H]2CN(C(=O)C3CCN(C(C)C)CC3)C[C@@H]2c2ccc(Cl)cc2)cc1C(F)(F)F (racemic) [Example 104, N-[(3RS,4SR)-4-(4-Chloro-phenyl)-1-(1-isopropyl-piperidine-4-carbonyl)-pyrrolidin-3-yl]-4-methoxy-N-methyl-3-trifluoromethyl-benzamide] | 4.1
CN(C(=O)c1ccc(Cl)cn1)[C@H]1CN(C(=O)C2CCN(C(=O)C3(C)CC3)CC2)C[C@@H]1c1ccc(Cl)c(Cl)c1 (racemic) [Example 108, 5-Chloro-pyridine-2-carboxylic acid {(3RS,4SR)-4-(3,4-dichloro-phenyl)-1-[1-(1-methyl-cyclopropanecarbonyl)-piperidine-4-carbonyl]-pyrrolidin-3-yl}-methyl-amide] | 2.6
CN(C(=O)c1ccc(F)c(C#N)c1)[C@H]1CN(C(=O)C2CCN(C(=O)C3(C)CC3)CC2)C[C@@H]1c1ccc(Cl)c(Cl)c1 (racemic) [Example 109, 3-Cyano-N-{(3RS,4SR)-4-(3,4-dichloro-phenyl)-1-[1-(1-methyl-cyclopropanecarbonyl)-piperidine-4-carbonyl]-pyrrolidin-3-yl}-4-fluoro-N-methyl-benzamide] | 0.8
COc1ccc(C(=O)N(C)[C@H]2CN(C(=O)C3CCN(CCC(C)(C)C)CC3)C[C@@H]2c2ccc(Cl)cc2)cc1C(F)(F)F (racemic) [Example 111, N-{(3RS,4SR)-4-(4-Chloro-phenyl)-1-[1-(3,3-dimethyl-butyl)-piperidine-4-carbonyl]-pyrrolidin-3-yl}-4-methoxy-N-methyl-3-trifluoromethyl-benzamide] | 0.7
CN(C(=O)CC1CCCC1)[C@H]1CN(C(=O)C2CCN(C(=O)C3(C)CC3)CC2)C[C@@H]1c1ccc(Cl)c(Cl)c1 (racemic) [Example 113, 2-Cyclopentyl-N-{(3RS,4SR)-4-(3,4-dichloro-phenyl)-1-[1-(1-methyl-cyclopropanecarbonyl)-piperidine-4-carbonyl]-pyrrolidin-3-yl}-N-methyl-acetamide] | 2.9
CC(C)C(C(=O)N(C)[C@H]1CN(C(=O)C2CCN(C(=O)C3(C)CC3)CC2)C[C@@H]1c1ccc(Cl)c(Cl)c1)c1ccc(F)cc1 (mixture of isomers) [Example 116, N-{(3RS,4SR)-4-(3,4-Dichloro-phenyl)-1-[1-(1-methyl-cyclopropanecarbonyl)-piperidine-4-carbonyl]-pyrrolidin-3-yl}-2-(4-fluoro-phenyl)-3,N-dimethyl-butyramide] | 49.7
COc1ccc(C(=O)N(C)[C@H]2CN(C(=O)C3CCN(CC(C)(C)C)CC3)C[C@@H]2c2ccc(Cl)cc2)cc1C(F)(F)F (racemic) [Example 120, N-{(3RS,4SR)-4-(4-Chloro-phenyl)-1-[1-(2,2-dimethyl-propyl)-piperidine-4-carbonyl]-pyrrolidin-3-yl}-4-methoxy-N-methyl-3-trifluoromethyl-benzamide] | 0.8
COc1ccc(C(=O)N[C@H]2CN(C(=O)C3CCN(C(=O)C4(C)CC4)CC3)C[C@@H]2c2ccc(Cl)cc2C)cc1C(F)(F)F (racemic) [Example 122, N-{(3RS,4SR)-4-(4-Chloro-2-methyl-phenyl)-1-[1-(1-methyl-cyclopropanecarbonyl)-piperidine-4-carbonyl]-pyrrolidin-3-yl}-4-methoxy-3-trifluoromethyl-benzamide] | 82
CN(C(=O)CC1CCOCC1)[C@H]1CN(C(=O)C2CCN(C(=O)C3(C)CC3)CC2)C[C@@H]1c1ccc(Cl)c(Cl)c1 (racemic) [Example 124, N-{(3RS,4SR)-4-(3,4-Dichloro-phenyl)-1-[1-(1-methyl-cyclopropanecarbonyl)-piperidine-4-carbonyl]-pyrrolidin-3-yl}-N-methyl-2-(tetrahydro-pyran-4-yl)-acetamide] | 13

Further compounds by falling Ki, results first:

Ki [nM] | Compound
23 | CN(C(=O)CC(C)(C)C)[C@H]1CN(C(=O)C2CCN(C(=O)C3(C)CC3)CC2)C[C@@H]1c1ccc(Cl)c(Cl)c1 (racemic) [Example 115, N-{(3RS,4SR)-4-(3,4-Dichloro-phenyl)-1-[1-(1-methyl-cyclopropanecarbonyl)-piperidine-4-carbonyl]-pyrrolidin-3-yl}-3,3,N-trimethyl-butyramide]
17.2 | CN(C(=O)CCC1CC1)[C@H]1CN(C(=O)C2CCN(C(=O)C3(C)CC3)CC2)C[C@@H]1c1ccc(Cl)c(Cl)c1 (racemic) [Example 114, 3-Cyclopropyl-N-{(3RS,4SR)-4-(3,4-dichloro-phenyl)-1-[1-(1-methyl-cyclopropanecarbonyl)-piperidine-4-carbonyl]-pyrrolidin-3-yl}-N-methyl-propionamide]
5.1 | CCN1CCC(C(=O)N2C[C@H](c3ccc(Cl)cc3)[C@@H](N(C)C(=O)c3ccc(OC)c(C(F)(F)F)c3)C2)CC1 (racemic) [Example 121, N-[(3RS,4SR)-4-(4-Chloro-phenyl)-1-(1-ethyl-piperidine-4-carbonyl)-pyrrolidin-3-yl]-4-methoxy-N-methyl-3-trifluoromethyl-benzamide]
2.3 | CN(C(=O)c1ccc(F)cc1)[C@H]1CN(C(=O)C2CCN(C(=O)C3(C)CC3)CC2)C[C@@H]1c1ccc(Cl)c(Cl)c1 (racemic) [Example 100, N-{(3RS,4SR)-4-(3,4-Dichloro-phenyl)-1-[1-(1-methyl-cyclopropanecarbonyl)-piperidine-4-carbonyl]-pyrrolidin-3-yl}-4-fluoro-N-methyl-benzamide]
0.9 | CN(C(=O)c1ccc(F)c(OC(F)(F)F)c1)[C@H]1CN(C(=O)C2CCN(C(=O)C3(C)CC3)CC2)C[C@@H]1c1ccc(Cl)c(Cl)c1 (racemic) [Example 98, N-{(3RS,4SR)-4-(3,4-Dichloro-phenyl)-1-[1-(1-methyl-cyclopropanecarbonyl)-piperidine-4-carbonyl]-pyrrolidin-3-yl}-4-fluoro-N-methyl-3-trifluoromethoxy-benzamide]
0.9 | COc1cc(C(=O)N(C)[C@H]2CN(C(=O)C3CCN(C(=O)C4(C)CC4)CC3)C[C@@H]2c2ccc(Cl)c(Cl)c2)ccc1Cl (racemic) [Example 99, 4-Chloro-N-{(3RS,4SR)-4-(3,4-dichloro-phenyl)-1-[1-(1-methyl-cyclopropanecarbonyl)-piperidine-4-carbonyl]-pyrrolidin-3-yl}-3-methoxy-N-methyl-benzamide]
0.8 | COc1ccc(C(=O)N(C)[C@H]2CN(C(=O)C3CCN(CC4CC4)CC3)C[C@@H]2c2ccc(Cl)cc2)cc1C(F)(F)F (racemic) [Example 105, N-[(3RS,4SR)-4-(4-Chloro-phenyl)-1-(1-cyclopropylmethyl-piperidine-4-carbonyl)-pyrrolidin-3-yl]-4-methoxy-N-methyl-3-trifluoromethyl-benzamide]
0.8 | COc1ccc(C(=O)N(C)[C@H]2CN(C(=O)C3CCN(CCC(F)(F)F)CC3)C[C@@H]2c2ccc(Cl)cc2)cc1C(F)(F)F (racemic) [Example 110, N-{(3RS,4SR)-4-(4-Chloro-phenyl)-1-[1-(3,3,3-trifluoro-propyl)-piperidine-4-carbonyl]-pyrrolidin-3-yl}-4-methoxy-N-methyl-3-trifluoromethyl-benzamide]
